Test results: US20110009350A1, “Oil-in-Water Formulation of Avermectins” (priority 2005, published 2011)

Key:
[1] = Stability of Abamectin in water at various pH-values and temperatures, kept in the dark, HPLC; assay type: physicochemical
Experimental: The stability of Abamectin in water at various pH-values and temperatures was determined. 194.4 mg of Abamectin was dissolved in 10 ml methanol and 1 ml of the solution transferred to 100 ml of de-mineralised water and a part of this was transferred to a buffer solution. The sample was kept in the dark and the solution analysed using a HPLC.

[2] = Stability of Abamectin in water exposed to light (5000-6000 lux) at 25° C., HPLC; assay type: physicochemical
Experimental: The stability of Abamectin in water exposed to light at various pH-values was determined. 194.4 mg of Abamectin was dissolved in 10 ml methanol and 1 ml of the solution transferred to 100 ml of demineralised water and a part of this transferred to a buffer solution. The solution was exposed to light (5000-6000 lux) at 25° C. and analysed using a HPLC.

With Abamectin the “Abamectin concentration (ppm)” value ([1]; 25° C., 7 days, pH 4.0, dark) was 3.130 ppm, the “Abamectin concentration (ppm)” value ([1]; 25° C., 7 days, pH 7.0, dark) was 3.188 ppm and the “Abamectin concentration (ppm)” value ([1]; 25° C., 7 days, pH 9.0, dark) was 3.005 ppm. The “Abamectin concentration (ppm)” value ([1]; 25° C., 14 days, pH 4.0, dark) was 2.782 ppm, the “Abamectin concentration (ppm)” value ([1]; 25° C., 14 days, pH 7.0, dark) was 3.040 ppm and the “Abamectin concentration (ppm)” value ([1]; 25° C., 14 days, pH 9.0, dark) was 2.596 ppm. For the same substance, the “Abamectin concentration (ppm)” value ([1]; 25° C., 21 days, pH 4.0, dark) was 2.566 ppm, the “Abamectin concentration (ppm)” value ([1]; 25° C., 21 days, pH 7.0, dark) was 2.829 ppm and the “Abamectin concentration (ppm)” value ([1]; 25° C., 21 days, pH 9.0, dark) was 2.380 ppm. The “Abamectin concentration (ppm)” value ([1]; 25° C., 28 days, pH 4.0, dark) was 2.524 ppm, the “Abamectin concentration (ppm)” value ([1]; 25° C., 28 days, pH 7.0, dark) was 2.676 ppm and the “Abamectin concentration (ppm)” value ([1]; 25° C., 28 days, pH 9.0, dark) was 2.287 ppm. For the same substance, the “Abamectin concentration (ppm)” value ([1]; 25° C., Initial, pH 4.0, dark) was 3.495 ppm, the “Abamectin concentration (ppm)” value ([1]; 25° C., Initial, pH 7.0, dark) was 3.327 ppm and the “Abamectin concentration (ppm)” value ([1]; 25° C., Initial, pH 9.0, dark) was 3.555 ppm. For the same substance, the “Abamectin concentration (ppm)” value ([1]; 50° C., 7 days, pH 4.0, dark) was 1.054 ppm, the “Abamectin concentration (ppm)” value ([1]; 50° C., 7 days, pH 7.0, dark) was 2.952 ppm and the “Abamectin concentration (ppm)” value ([1]; 50° C., 7 days, pH 9.0, dark) was 1.265 ppm. For the same substance, the “Abamectin concentration (ppm)” value ([1]; 50° C., 14 days, pH 4.0, dark) was 0.383 ppm, the “Abamectin concentration (ppm)” value ([1]; 50° C., 14 days, pH 7.0, dark) was 2.780 ppm and the “Abamectin concentration (ppm)” value ([1]; 50° C., 14 days, pH 9.0, dark) was 0.519 ppm. The “Abamectin concentration (ppm)” value ([1]; 50° C., 21 days, pH 4.0, dark) was 0.123 ppm, the “Abamectin concentration (ppm)” value ([1]; 50° C., 21 days, pH 7.0, dark) was 2.194 ppm and the “Abamectin concentration (ppm)” value ([1]; 50° C., 21 days, pH 9.0, dark) was 0.205 ppm. For the same substance, the “Abamectin concentration (ppm)” value ([1]; 50° C., 28 days, pH 4.0, dark) was 0.0609 ppm, the “Abamectin concentration (ppm)” value ([1]; 50° C., 28 days, pH 7.0, dark) was 1.949 ppm and the “Abamectin concentration (ppm)” value ([1]; 50° C., 28 days, pH 9.0, dark) was 0.0628 ppm. For the same substance, the “Abamectin concentration (ppm)” value ([1]; 50° C., Initial, pH 4.0, dark) was 3.495 ppm, the “Abamectin concentration (ppm)” value ([1]; 50° C., Initial, pH 7.0, dark) was 3.327 ppm and the “Abamectin concentration (ppm)” value ([1]; 50° C., Initial, pH 9.0, dark) was 3.555 ppm. For the same substance, the “Abamectin concentration (ppm)” value ([2]; 7 days, pH 4.0) was 2.923 ppm, the “Abamectin concentration (ppm)” value ([2]; 7 days, pH 7.0) was 2.941 ppm and the “Abamectin concentration (ppm)” value ([2]; 7 days, pH 9.0) was 3.163 ppm. For the same substance, the “Abamectin concentration (ppm)” value ([2]; 14 days, pH 4.0) was 2.332 ppm, the “Abamectin concentration (ppm)” value ([2]; 14 days, pH 7.0) was 2.529 ppm and the “Abamectin concentration (ppm)” value ([2]; 14 days, pH 9.0) was 2.810 ppm. The “Abamectin concentration (ppm)” value ([2]; 21 days, pH 4.0) was 1.961 ppm, the “Abamectin concentration (ppm)” value ([2]; 21 days, pH 7.0) was 2.223 ppm and the “Abamectin concentration (ppm)” value ([2]; 21 days, pH 9.0) was 2.360 ppm. The “Abamectin concentration (ppm)” value ([2]; 28 days, pH 4.0) was 1.666 ppm, the “Abamectin concentration (ppm)” value ([2]; 28 days, pH 7.0) was 2.034 ppm and the “Abamectin concentration (ppm)” value ([2]; 28 days, pH 9.0) was 2.173 ppm. For the same substance, the “Abamectin concentration (ppm)” value ([2]; Initial, pH 4.0) was 3.495 ppm, the “Abamectin concentration (ppm)” value ([2]; Initial, pH 7.0) was 3.327 ppm and the “Abamectin concentration (ppm)” value ([2]; Initial, pH 9.0) was 3.555 ppm.
